Results as given in PMC6863074 (Journal of medicinal chemistry, 2015).
Entries after “also recorded” stand apart in the source; their conditions may differ. Marks after values point to notes of the source that are not given here.

system: not given; assay: not given; conditions: antibiotics on the market; cited from earlier work

Molecule	plasma protein binding [%]
CO[C@H]1/C=C/O[C@@]2(C)Oc3c(C)c(O)c4c(O)c(c(/C=N/N5CCN(C)CC5)c(O)c4c3C2=O)NC(=O)/C(C)=C\C=C\[C@H](C)[C@H](O)[C@@H](C)[C@@H](O)[C@@H](C)[C@H](OC(C)=O)[C@@H]1C [rifampicin]	> 91

same assay, conditions: plasma; cited from earlier work

Molecule	plasma protein binding [%]
CCCCCCCCCC(=O)N[C@@H](Cc1c[nH]c2ccccc12)C(=O)N[C@H](CC(N)=O)C(=O)N[C@@H](CC(=O)O)C(=O)N[C@@H]1C(=O)NCC(=O)N[C@@H](CCCN)C(=O)N[C@@H](CC(=O)O)C(=O)N[C@H](C)C(=O)N[C@@H](CC(=O)O)C(=O)NCC(=O)N[C@H](CO)C(=O)N[C@@H]([C@H](C)CC(=O)O)C(=O)N[C@@H](CC(=O)c2ccccc2N)C(=O)O[C@@H]1C [daptomycin]	> 91
Cc1onc(-c2ccccc2)c1C(=O)N[C@@H]1C(=O)N2[C@@H]1SC(C)(C)[C@@H]2C(=O)O [oxacillin]	> 91
teicoplanin	> 91

system: S. aureus ATCC 27660; assay: not given; conditions: iv, 2 doses given at 30 min and 7.5 h after infection; cited from earlier work

Molecule	ED50
Oc1ccc(-c2nc(-c3ccc(Oc4ccc(C(F)(F)F)cc4)cc3)no2)cc1 [compound 1]	ED50 = 40 mg/kg^c

same assay, conditions: po, single dose given at 1 h after infection; cited from earlier work

Molecule	ED50
Oc1ccc(-c2nc(-c3ccc(Oc4ccc(C(F)(F)F)cc4)cc3)no2)cc1 [compound 1]	44^a mg/kg

system: S. aureus ATCC 29213; assay: MIC determination, S. aureus ATCC 29213; conditions: S. aureus ATCC 29213 MIC screening; active = MIC ≤ 8 μg/mL

Molecule	antibacterial activity (in words)
Nc1ccc(-c2nc(-c3ccc(Oc4ccccc4)cc3)no2)cc1 [58a]	low MIC values
Nc1ccc(-c2nc(-c3ccc(Oc4ccc(C(F)(F)F)cc4)cc3)no2)cc1 [58b]	low MIC values
Nc1ccc(-c2nc(-c3ccc(Oc4ccc(F)cc4)cc3)no2)cc1 [58c]	no antibiotic activity
Nc1c[nH]nc1-c1nc(-c2ccc(Oc3ccc(C(F)(F)F)cc3)cc2)no1 [64b, 3-(3-(4-(4-(Trifluoromethyl)phenoxy)phenyl)-1,2,4-oxadiazol-5-yl)-1H-pyrazol-4-amine]	tolerated
CC(C)Nc1c[nH]nc1-c1nc(-c2ccc(Oc3ccccc3)cc2)no1 [65a]	active
N#Cc1c[nH]nc1-c1nc(-c2ccc(Oc3ccc(C(F)(F)F)cc3)cc2)no1 [67b]	maintained good activity
OCC#Cc1c[nH]nc1-c1nc(-c2ccc(Oc3ccc(C(F)(F)F)cc3)cc2)no1 [68b]	maintained good activity
Oc1ccc(-c2nc(-c3ccc(Oc4ccc(C(F)(F)F)cc4)cc3)no2)cc1O [69b]	retained activity
Oc1c(F)cc(-c2nc(-c3ccc(Oc4ccc(C(F)(F)F)cc4)cc3)no2)cc1F [71b]	without significant loss of activity
Nc1ccc(-c2nc(-c3ccc(Oc4ccc(C(F)(F)F)cc4)cc3)no2)cc1F [72b]	without significant loss of activity
Nc1c(F)cc(-c2nc(-c3ccc(Oc4ccccc4)cc3)no2)cc1F [73a]	without significant loss of activity
FC(F)(F)c1ccc(Oc2ccc(-c3noc(-c4c[nH]cn4)n3)cc2)cc1 [76b, 5-(1H-Imidazol-4-yl)-3-(4-(4-(trifluoromethyl)phenoxy)phenyl)-1,2,4-oxadiazole]	retained good activity
O=[N+]([O-])c1cc(-c2nc(-c3ccc(Oc4ccc(C(F)(F)F)cc4)cc3)no2)cnc1O [77b]	retained good activity
O=[N+]([O-])c1c[nH]c(-c2nc(-c3ccc(Oc4ccc(C(F)(F)F)cc4)cc3)no2)c1 [78b]	retained good activity
O=[N+]([O-])c1c[nH]c(-c2nc(-c3ccc(Oc4ccc(F)cc4)cc3)no2)c1 [78c]	generally abolish antibacterial activity
Fc1ccc(-c2nc(-c3ccc(Oc4ccccc4)cc3)no2)cc1 [80a]	loss of activity
FC(F)(F)c1ccc(Oc2ccc(-c3noc(-c4ccc(Br)cc4)n3)cc2)cc1 [81b]	loss of activity
O=[N+]([O-])c1ccc(-c2nc(-c3ccc(Oc4ccccc4)cc3)no2)cc1 [82a]	loss of activity
O=P(O)(O)c1ccc(-c2nc(-c3ccc(Oc4ccc(F)cc4)cc3)no2)cc1 [84c]	loss of activity; also recorded: attenuate or abrogate activity
NS(=O)(=O)c1ccc(-c2nc(-c3ccc(Oc4ccc(C(F)(F)F)cc4)cc3)no2)cc1 [87b]	failed to show activity; also recorded: attenuate or abrogate activity
NS(=O)(=O)c1ccc(-c2nc(-c3ccc(Oc4ccc(F)cc4)cc3)no2)cc1 [87c]	attenuate or abrogate activity
NC(=O)c1ccc(-c2nc(-c3ccc(Oc4ccc(F)cc4)cc3)no2)cc1 [88c]	failed to show activity; also recorded: attenuate or abrogate activity
O=C(O)c1ccc(-c2nc(-c3ccc(Oc4ccc(F)cc4)cc3)no2)cc1 [89c]	failed to show activity; also recorded: attenuate or abrogate activity
COC(=O)c1ccc(-c2nc(-c3ccc(Oc4ccc(F)cc4)cc3)no2)cc1 [90c]	failed to show activity
O=[N+]([O-])c1cc(-c2nc(-c3ccc(Oc4ccc(F)cc4)cc3)no2)ccc1O [91c]	failed to show activity; also recorded: abolish activity
Nc1cc(-c2nc(-c3ccc(Oc4ccc(F)cc4)cc3)no2)ccc1O [92c]	failed to show activity
COc1cc(-c2nc(-c3ccc(Oc4ccc(C(F)(F)F)cc4)cc3)no2)ccc1O [93b]	failed to show activity; also recorded: abolish activity

Molecule	antibacterial activity (in words)
COc1cc(-c2nc(-c3ccc(Oc4ccccc4)cc3)no2)ccc1N [94a]	abolish activity
Oc1cccc(-c2nc(-c3ccc(Oc4ccccc4)cc3)no2)c1 [95a]	failed to show activity
Oc1cc(-c2nc(-c3ccc(Oc4ccccc4)cc3)no2)ccc1I [96a]	failed to show activity
Oc1ccccc1-c1nc(-c2ccc(Oc3ccccc3)cc2)no1 [97a]	failed to show activity
FC(F)(F)c1ccc(Oc2ccc(-c3noc(-c4cc[nH]n4)n3)cc2)cc1 [102b]	No activity
CCCCNc1c[nH]nc1-c1nc(-c2ccc(Oc3ccc(C(F)(F)F)cc3)cc2)no1 [104b]	did not extend
CC(C)CNc1c[nH]nc1-c1nc(-c2ccc(Oc3ccc(C(F)(F)F)cc3)cc2)no1 [105b]	did not extend
FC(F)(F)c1ccc(Oc2ccc(-c3noc(-c4n[nH]cc4NC4CCCCC4)n3)cc2)cc1 [106b]	did not extend
FC(F)(F)c1ccc(Oc2ccc(-c3noc(-c4n[nH]cc4NC4CCCC4)n3)cc2)cc1 [107b]	did not extend
O=C(Nc1c[nH]nc1-c1nc(-c2ccc(Oc3ccc(C(F)(F)F)cc3)cc2)no1)c1ccccc1 [108b]	did not extend
O=C(Nc1c[nH]nc1-c1nc(-c2ccc(Oc3ccc(C(F)(F)F)cc3)cc2)no1)c1ccccn1 [109b]	did not extend
O=c1[nH]c(-c2ccc(Oc3ccccc3)cc2)no1 [112a]	abolishes activity
Cc1nc(-c2ccc(Oc3ccccc3)cc2)no1 [113a]	abolishes activity
c1ccc(Oc2ccc(-c3noc(-c4ccncc4)n3)cc2)cc1 [114a]	generally abolish antibacterial activity
[O-][n+]1ccc(-c2nc(-c3ccc(Oc4ccccc4)cc3)no2)cc1 [115a]	generally abolish antibacterial activity
FC(F)(F)c1ccc(Oc2ccc(-c3noc(-c4nc[nH]n4)n3)cc2)cc1 [116b]	generally abolish antibacterial activity
FC(F)(F)c1ccc(Oc2ccc(-c3noc(-c4cn[nH]n4)n3)cc2)cc1 [117b]	generally abolish antibacterial activity
CCn1ccc(-c2nc(-c3ccc(Oc4ccc(F)cc4)cc3)no2)n1 [118c]	No activity
Oc1ccc(-c2nc(-c3ccc(Oc4ccc(C(F)(F)F)cc4)cc3)no2)cn1 [120b]	No activity
Nc1cc(-c2nc(-c3ccc(Oc4ccc(C(F)(F)F)cc4)cc3)no2)cnc1O [121b]	No activity
Nc1cncc(-c2nc(-c3ccc(Oc4ccc(C(F)(F)F)cc4)cc3)no2)c1 [122b]	No activity
Nc1cncc(-c2nc(-c3ccc(Oc4ccc(F)cc4)cc3)no2)c1 [122c]	No activity
FC(F)(F)c1ccc(Oc2ccc(-c3noc(-c4n[nH]c5ccccc45)n3)cc2)cc1 [123b]	No activity
FC(F)(F)c1ccc(Oc2ccc(-c3noc(-c4c[nH]c5ncccc45)n3)cc2)cc1 [125b]	No activity
Nc1c[nH]c(-c2nc(-c3ccc(Oc4ccc(F)cc4)cc3)no2)c1 [126c]	generally abolish antibacterial activity
Fc1ccc(Oc2ccc(-c3noc(-c4cc[nH]c4)n3)cc2)cc1 [127c]	generally abolish antibacterial activity

same assay, conditions: Staphylococcus aureus, ATCC29213|MSSA

Molecule	MIC [µg/mL]
Brc1c[nH]nc1-c1nc(-c2ccc(Oc3ccccc3)cc2)no1 [61a]	≤ 1
